Laboratory results published in PubChem BioAssay AID1259408 (Genetic Toxicology Data Bank (GENE-TOX), 2018).
The source made the active and inactive calls. No rule for the calls is given here.

System: GENE-TOX genotoxicity assays, various organisms and cells
Assay: GENE-TOX mutagenicity studies
Conditions: for call: Assay Type: In vivo carcinogenicity studies
[1] = Species/Cell Type: Salmonella typhimurium (one or more of the five standard strains: TA98, TA100, TA1535, TA1537, and TA1538), Assay Type: Histidine reverse gene mutation, Ames assay, Assay Code: SALT, Evaluation Type: Evaluation A (Pre-1980)
[2] = Species/Cell Type: Nonhuman, Assay Type: Sister-chromatid exchange (SCE) in vitro, Assay Code: SC2T, Evaluation Type: Evaluation B (Post-1980)
[3] = Species/Cell Type: Salmonella typhimurium (one or more of the five standard strains: TA98, TA100, TA1535, TA1537, and TA1538), Assay Type: Histidine reverse gene mutation, Ames assay, Assay Code: SAL+, Evaluation Type: Evaluation A (Pre-1980)
[4] = Species/Cell Type: Salmonella typhimurium (one or more of the five standard strains: TA98, TA100, TA1535, TA1537, and TA1538), Assay Type: Histidine reverse gene mutation, Ames assay, Assay Code: SAL+*, Activation: With metabolic activation, Evaluation Type: Evaluation A (Pre-1980)

`C=Cc1cccc(C)c1` was tested, and the mutagenic call (Species/Cell Type: Human lymphocytes, Assay Type: Sister-chromatid exchange (SCE) in vitro, Assay Code: SCL+D, Dose Response: With dose response, Evaluation Type: Evaluation B (Post-1980)) was “active; positive” and the mutagenic call (Species/Cell Type: Human, Assay Type: Sister-chromatid exchange (SCE) in vitro, Assay Code: SC1+D, Dose Response: With dose response, Evaluation Type: Evaluation B (Post-1980)) was “active; positive”.
In the case of `CS(=O)(=O)c1ccc([C@H](O)[C@H](CO)NC(=O)C(Cl)Cl)cc1`, the mutagenic call [1] is reported as “no conclusion”.
`O=S(=O)(O)c1ccc(O)c(N=Nc2c(O)ccc3ccccc23)c1` was tested, and the mutagenic call [1] was “no conclusion”.
With `COC1OC[C@@H](C(C)=O)[C@H]1C` (some centres undefined) the mutagenic call [2] was “no conclusion”.
With `Nc1nc2c(ncn2[C@H]2C[C@H](O)[C@@H](CO)O2)c(=O)[nH]1` the mutagenic call (Species/Cell Type: Glycine max (soybean), Assay Type: Gene mutation, Assay Code: GLM-, Evaluation Type: Evaluation A (Pre-1980)) was “inactive; negative”.
For `O=[N+]([O-])c1ccc(-c2nc(NCCO)c3ccccc3n2)s1`, the mutagenic call [3] was “active; positive”.
With `CCOCc1c(O)cc2c(c1O)C(=O)c1ccccc1C2=O` the mutagenic call [3] was “active; positive”.
`CCCCC[CH2][Hg][Br]` was tested, and the mutagenic call (Species/Cell Type: Allium cepa, Assay Type: Chromosome aberrations, Assay Code: ALC+D, Dose Response: With dose response, Evaluation Type: Evaluation A (Pre-1980)) was “active; positive”.
In the case of `Nc1ncnc2n[nH]nc12`, the mutagenic call (Species/Cell Type: Vicia faba, Assay Type: Chromosome aberrations, Assay Code: VIC+, Evaluation Type: Evaluation A (Pre-1980)) is reported as “active; positive”.
In the case of `Cc1cc2ccccc2c2ccc3ccccc3c12`, the call (Species/Cell Type: Nonhuman, Assay Code: CCG+, Evaluation Type: Evaluation A (Pre-1980)) is reported as “active; positive” and the mutagenic call [4] is reported as “active; positive”.
For `CC(C)=CCOc1c2occc2cc2ccc(=O)oc12`, the mutagenic call (Species/Cell Type: Human lymphocytes, Assay Type: Sister-chromatid exchange (SCE) in vitro, Assay Code: SCL+, Evaluation Type: Evaluation B (Post-1980)) was “active; positive” and the mutagenic call (Species/Cell Type: Human, Assay Type: Sister-chromatid exchange (SCE) in vitro, Assay Code: SC1+, Evaluation Type: Evaluation B (Post-1980)) was “active; positive”.
With `NCCc1c[nH]c2ccc(O)cc12` (tested in a mixture with another compound) the mutagenic call (Species/Cell Type: Drosophila melanogaster, Assay Type: Aneuploidy, whole sex chromosome loss, chromosome aberrations, Assay Code: DACTM, Evaluation Type: Evaluation A (Pre-1980)) was “no conclusion” and the mutagenic call (Species/Cell Type: Drosophila melanogaster, Sex: Male, Assay Type: Heritable translocation test, chromosome aberrations, Assay Code: DHTT, Evaluation Type: Evaluation A (Pre-1980)) was “no conclusion”.
In the case of `c1ccc2c(c1)c1cccc3ccc4cccc2c4c31`, the mutagenic call (Species/Cell Type: Chinese hamster lung (V79) cells, Assay Type: Forward gene mutation at the HPRT or ouabain locus, Assay Code: V79-, Evaluation Type: Evaluation A (Pre-1980)) is reported as “inactive; negative”, the mutagenic call (Species/Cell Type: Escherichia coli polA (W3110 vs P3478), Assay Type: Rec-assay, DNA effects (bacterial DNA repair), Assay Code: RE2-, Evaluation Type: Evaluation A (Pre-1980)) is reported as “inactive; negative” and the mutagenic call (Species/Cell Type: Escherichia coli polA (W3119 vs P3478), Assay Type: Rec-assay, DNA effects (bacterial DNA repair), Assay Code: RE1T, Evaluation Type: Evaluation A (Pre-1980)) is reported as “no conclusion”. The mutagenic call (Species/Cell Type: Fischer rat embryo (RLV/1706) cells, Assay Type: Cell transformation, viral enhanced, Assay Code: CTR-, Evaluation Type: Evaluation A (Pre-1980)) was “inactive; negative”, the mutagenic call (Species/Cell Type: Human diploid fibroblasts, Assay Type: Unscheduled DNA synthesis (UDS) in vitro, DNA effects, Assay Code: UDH+*, Activation: With metabolic activation, Evaluation Type: Evaluation A (Pre-1980)) was “active; positive” and the mutagenic call (Species/Cell Type: Mouse (BALB/c-3T3) cells, Assay Type: Cell transformation, Assay Code: CTB-, Evaluation Type: Evaluation A (Pre-1980)) was “inactive; negative”. For the same compound, the mutagenic call (Species/Cell Type: Mouse lymphoma (L5178Y) cells, Assay Type: Forward gene mutation at the thymidine kinase (TK) locus, chromosome aberrations, Assay Code: L51T, Evaluation Type: Evaluation A (Pre-1980)) was “no conclusion”, the call (Species/Cell Type: Nonhuman, Assay Code: CCGT, Evaluation Type: Evaluation A (Pre-1980)) was “no conclusion” and the mutagenic call [2] was “no conclusion”. For the same compound, the mutagenic call (Species/Cell Type: Nonhuman, Assay Type: Sister-chromatid exchange (SCE) in vivo, Assay Code: SC3+, Evaluation Type: Evaluation B (Post-1980)) was “active; positive”, the mutagenic call (Species/Cell Type: Nonhuman, Assay Type: Sister-chromatid exchange (SCE) in vivo, Assay Code: SC3T, Evaluation Type: Evaluation A (Pre-1980)) was “no conclusion” and the mutagenic call (Species/Cell Type: Saccharomyces cerevisiae, Assay Type: Mitotic recombination or gene conversion, Assay Code: YEH-, Evaluation Type: Evaluation A (Pre-1980)) was “inactive; negative”. For the same compound, the mutagenic call [4] was “active; positive” and the mutagenic call (Species/Cell Type: Syrian hamster embryo (SHE) cells, Assay Type: Cell transformation, clonal assay, Assay Code: CTC-, Evaluation Type: Evaluation A (Pre-1980)) was “inactive; negative”.
In the case of `NCCCC[C@H](N)C(=O)O`, the mutagenic call (Species/Cell Type: Human, Sex: Male, Assay Type: Sperm morphology, Assay Code: SPH-, Evaluation Type: Evaluation A (Pre-1980)) is reported as “inactive; negative”.
For `O=C1c2ccccc2C(=O)c2c1ccc(OCCCS(=O)(=O)O)c2O`, the mutagenic call [4] was “active; positive”.
`O=c1[nH]c(=O)[nH]c(=O)[nH]1` was tested, and the mutagenic call (Species/Cell Type: Nonhuman, Assay Type: Sister-chromatid exchange (SCE) in vitro, Assay Code: SC2-, Evaluation Type: Evaluation B (Post-1980)) was “inactive; negative”.
For `C[C@H]1c2cccc(O)c2C(O)=C2C(=O)[C@]3(O)C(O)=C(C(N)=O)C(=O)[C@@H](N(C)C)[C@@H]3[C@@H](O)[C@@H]21`, the mutagenic call (Species/Cell Type: Human, Sex: Male, Assay Type: Sperm morphology, Assay Code: SPHT, Evaluation Type: Evaluation A (Pre-1980)) was “no conclusion”.
